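Here, GI50 denotes the concentration required for 50% inhibition of growth. Definition used: TGI = concentration required for complete inhibition of growth.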
How the values were obtained:
Test in all cases: NCI tumour cell line growth inhibition, 384-well format
[1] = tested on: COLO 205 colon
[2] = tested on: SK-OV-3 ovarian
[3] = tested on: HCT-15 colon
[4] = tested on: DU-145 prostate
[5] = tested on: OVCAR-4 ovarian
[6] = tested on: OVCAR-5 ovarian
[7] = tested on: OVCAR-8 ovarian
[8] = tested on: SF-539 CNS
[9] = tested on: SF-268 CNS
[10] = tested on: KM12 colon
[11] = tested on: K-562 leukemia
[12] = tested on: NCI-H522 lung
[13] = tested on: HL-60(TB) leukemia
[14] = tested on: MCF7 breast
[15] = tested on: SNB-19 CNS
[16] = tested on: HOP-92 NSCLC
[17] = tested on: OVCAR-3 ovarian
[18] = tested on: NCI-H226 lung
[19] = tested on: RXF 393 renal
[20] = tested on: A549 NSCLC
[21] = tested on: SW-620 colon
[22] = tested on: HCT-116 colon
[23] = tested on: PC-3 prostate
[24] = tested on: NCI-H460 NSCLC
[25] = tested on: A498 renal
[26] = tested on: HOP-62 NSCLC
[27] = tested on: T-47D breast
[28] = tested on: UACC-62 melanoma
[29] = tested on: SK-MEL-28 melanoma
[30] = tested on: 786-0 renal
[31] = tested on: TK-10 renal
[32] = tested on: MDA-MB-435 melanoma
[33] = tested on: HS 578T breast
[34] = tested on: M14 melanoma
[35] = tested on: EKVX NSCLC
[36] = tested on: SF-295 CNS
[37] = tested on: MDA-MB-468 breast
[38] = tested on: NCI-H322M lung
[39] = tested on: UACC-257 melanoma
[40] = tested on: HT29 colon
[41] = tested on: U251 glioblastoma
[42] = tested on: BT-549 breast
[43] = tested on: MDA-MB-231 breast
[44] = tested on: ACHN renal
[45] = tested on: MALME-3M melanoma
[46] = tested on: MOLT-4 leukemia
[47] = tested on: SK-MEL-5 melanoma
[48] = tested on: UO-31 renal
[49] = tested on: IGROV1 ovarian
[50] = tested on: SK-MEL-2 melanoma
[51] = tested on: SNB-75 CNS
[52] = tested on: SR leukemia
[53] = tested on: CAKI-1 renal
[54] = tested on: NCI-H23 lung
[55] = tested on: SN12C renal

CCOC(=O)[C@@H](N)CCC(=O)N[C@@H](CSCc1ccccc1)C(=O)N[C@@H](C(=O)OCC)c1ccccc1
GI50 [1]: 11.5 µM | TGI [1]: 23.8 µM | GI50 [2]: 13.9 µM | TGI [2]: 26.9 µM | GI50 [3]: 20.1 µM | TGI [3]: 40.8 µM | GI50 [4]: 19.2 µM | TGI [4]: 45.3 µM | GI50 [5]: 16 µM | TGI [5]: 31.4 µM | GI50 [6]: 32.3 µM | TGI [6]: > 100 µM | GI50 [7]: 10.8 µM | TGI [7]: 22.8 µM | GI50 [8]: 12.5 µM | TGI [8]: 25.1 µM | GI50 [9]: 10.5 µM | TGI [9]: 22.4 µM | GI50 [10]: 6.17 µM | TGI [10]: 18.5 µM | GI50 [11]: 10.6 µM | TGI [11]: 22.7 µM | GI50 [12]: 14.4 µM | TGI [12]: 27.6 µM | GI50 [13]: 18.5 µM | TGI [13]: 32.6 µM | GI50 [14]: 5.51 µM | TGI [14]: 19 µM | GI50 [15]: 15.7 µM | TGI [15]: 30.3 µM | GI50 [16]: 10.4 µM | TGI [16]: 22.2 µM | GI50 [17]: 13.5 µM | TGI [17]: 26.4 µM | GI50 [18]: 11.8 µM | TGI [18]: 25.6 µM | GI50 [19]: 10.8 µM | TGI [19]: 22.7 µM | GI50 [20]: 25.3 µM | TGI [20]: > 100 µM | GI50 [21]: 9.33 µM | TGI [21]: 21.4 µM | GI50 [22]: 5.21 µM | TGI [22]: 17 µM | GI50 [23]: 14.8 µM | TGI [23]: 28.1 µM | GI50 [24]: 7.59 µM | TGI [24]: 20.1 µM | GI50 [25]: 11.6 µM | TGI [25]: 24.1 µM | GI50 [26]: 9.1 µM | TGI [26]: 24 µM | GI50 [27]: 15.5 µM | TGI [27]: 29 µM | GI50 [28]: 10.5 µM | TGI [28]: 22.4 µM | GI50 [29]: 16.5 µM | TGI [29]: 30.1 µM | GI50 [30]: 12.3 µM | TGI [30]: 24.8 µM | GI50 [31]: 14.5 µM | TGI [31]: 27.9 µM | GI50 [32]: 17.3 µM | TGI [32]: 31.2 µM | GI50 [33]: 15.3 µM | TGI [33]: 28.6 µM | GI50 [34]: 16.8 µM | TGI [34]: 30.4 µM | GI50 [35]: 20.4 µM | TGI [35]: 43.6 µM | GI50 [36]: 13.1 µM | TGI [36]: 26.1 µM | GI50 [37]: 5.45 µM | TGI [37]: 17.2 µM | GI50 [38]: 18.1 µM | TGI [38]: 60 µM | GI50 [39]: 16.9 µM | TGI [39]: 30.6 µM | GI50 [40]: 8.24 µM | TGI [40]: 20.7 µM | GI50 [41]: 11.2 µM | TGI [41]: 23.5 µM | GI50 [42]: 17.5 µM | TGI [42]: 31.3 µM | GI50 [43]: 11.9 µM | TGI [43]: 24.2 µM | GI50 [44]: 8.55 µM | TGI [44]: 20.9 µM | GI50 [45]: 16.4 µM | TGI [45]: 30.1 µM | GI50 [46]: 2.01 µM | TGI [46]: 3.57 µM | GI50 [47]: 15.3 µM | TGI [47]: 29 µM | GI50 [48]: 38.6 µM | TGI [48]: > 100 µM | GI50 [49]: 13 µM | TGI [49]: 25.9 µM | GI50 [50]: 15.5 µM | TGI [50]: 29 µM | GI50 [51]: 12.2 µM | TGI [51]: 24.7 µM | GI50 [52]: 1.82 µM | TGI [52]: 3.43 µM | GI50 [53]: 8.03 µM | TGI [53]: 20.4 µM | GI50 [54]: 16.2 µM | TGI [54]: 32.5 µM | GI50 [55]: 15 µM | TGI [55]: 28.3 µM

From PubChem BioAssay (NCI)
